Results from ChEMBL document CHEMBL1201862, “PubChem BioAssay data set” (2004).
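Cultured in 96-well plates, cells were exposed to test compound for 48 hours across five concentrations. GI50: concentration for 50% inhibition of growth.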 Calls of active or inactive are those of the source. No stated cut-off is given here; in the data, active = GI50 up to about 1.1 µM and inactive = higher.

Tests used:
Assay in all cases: DTP human tumour cell line panel, 48 h
SK-MEL-28 = system: SK-MEL-28
NCI-H23 = system: NCI-H23
HT-29 = system: HT-29
XF498 = system: XF498
SN12C = system: SN12C
Malme-3M = system: Malme-3M
NCI-H226 = system: NCI-H226
DMS-273 = system: DMS-273
A549 = system: A549
SF-295 = system: SF-295
ACHN = system: ACHN
MOLT-4 = system: MOLT-4
RXF 631 = system: RXF 631
OVCAR-3 = system: OVCAR-3
EKVX = system: EKVX
HCT-116 = system: HCT-116
DMS-114 = system: DMS-114
M19-MEL = system: M19-MEL
CAKI-1 = system: CAKI-1
CCRF-CEM = system: CCRF-CEM
NCI-H460 = system: NCI-H460
IGROV-1 = system: IGROV-1
LOX IMVI = system: LOX IMVI
OVCAR-4 = system: OVCAR-4
SNB-19 = system: SNB-19
SNB-78 = system: SNB-78
M14 = system: M14
A498 = system: A498
UACC-62 = system: UACC-62
DLD-1 = system: DLD-1
OVCAR-5 = system: OVCAR-5
HOP-62 = system: HOP-62
COLO 205 = system: COLO 205
UO-31 = system: UO-31
HCT-15 = system: HCT-15
KM-20L2 = system: KM-20L2
OVCAR-8 = system: OVCAR-8
NCI-H522 = system: NCI-H522
RPMI-8226 = system: RPMI-8226
UACC-257 = system: UACC-257
KM12 = system: KM12
U-251 = system: U-251
SK-MEL-2 = system: SK-MEL-2
SF-268 = system: SF-268
HCC 2998 = system: HCC 2998
HL-60 = system: HL-60
K562 = system: K562
786-0 = system: 786-0
RXF 393 = system: RXF 393
SR = system: SR
SW-620 = system: SW-620
SF-539 = system: SF-539

`O=C(O)/C=C/n1c2ccccc2c(=O)c2ccccc21` was tested, and the GI50 (SK-MEL-28) was > 100 µM (inactive), the GI50 (NCI-H23) was > 100 µM (inactive) and the GI50 (HT-29) was > 100 µM (inactive). For the same compound, the GI50 (XF498) was > 100 µM (inactive), the GI50 (SN12C) was > 100 µM (inactive) and the GI50 (Malme-3M) was > 100 µM (inactive). For the same compound, the GI50 (NCI-H226) was > 100 µM (inactive), the GI50 (DMS-273) was > 100 µM (inactive) and the GI50 (A549) was > 100 µM (inactive). The GI50 (SF-295) was > 100 µM (inactive), the GI50 (ACHN) was > 100 µM (inactive) and the GI50 (MOLT-4) was > 100 µM (inactive). For the same compound, the GI50 (RXF 631) was > 100 µM (inactive), the GI50 (OVCAR-3) was > 100 µM (inactive) and the GI50 (EKVX) was > 100 µM (inactive). The GI50 (HCT-116) was > 100 µM (inactive), the GI50 (DMS-114) was > 100 µM (inactive) and the GI50 (M19-MEL) was > 100 µM (inactive). For the same compound, the GI50 (CAKI-1) was > 100 µM (inactive), the GI50 (CCRF-CEM) was > 100 µM (inactive) and the GI50 (NCI-H460) was > 100 µM (inactive). The GI50 (IGROV-1) was > 100 µM (inactive), the GI50 (LOX IMVI) was > 100 µM (inactive) and the GI50 (OVCAR-4) was > 100 µM (inactive). The GI50 (SNB-19) was > 100 µM (inactive), the GI50 (SNB-78) was > 100 µM (inactive) and the GI50 (M14) was > 100 µM (inactive). The GI50 (A498) was > 100 µM (inactive), the GI50 (UACC-62) was > 100 µM (inactive) and the GI50 (DLD-1) was > 100 µM (inactive). The GI50 (OVCAR-5) was > 100 µM (inactive), the GI50 (HOP-62) was > 100 µM (inactive) and the GI50 (COLO 205) was > 100 µM (inactive). The GI50 (UO-31) was > 100 µM (inactive), the GI50 (HCT-15) was greater than 100 µM and the GI50 (KM-20L2) was > 100 µM (inactive). The GI50 (OVCAR-8) was > 100 µM (inactive), the GI50 (NCI-H522) was > 100 µM (inactive) and the GI50 (RPMI-8226) was > 100 µM (inactive). The GI50 (UACC-257) was > 100 µM (inactive), the GI50 (KM12) was > 100 µM (inactive) and the GI50 (U-251) was > 100 µM (inactive). For the same compound, the GI50 (SK-MEL-2) was > 100 µM (inactive), the GI50 (SF-268) was > 100 µM (inactive) and the GI50 (HCC 2998) was > 100 µM (inactive). For the same compound, the GI50 (HL-60) was > 100 µM (inactive), the GI50 (K562) was > 100 µM (inactive) and the GI50 (786-0) was > 100 µM (inactive). For the same compound, the GI50 (RXF 393) was > 100 µM (inactive), the GI50 (SR) was > 100 µM (inactive) and the GI50 (SW-620) was > 100 µM (inactive). For the same compound, the GI50 (SF-539) was > 100 µM (inactive).
